Experimental data published in patent publication US9074289B2, “Environmentally friendly corrosion inhibitor” (NALCO COMPANY, priority 2011, dated 2015).

What was measured:
[1] = Log Pow (octanol-water partition coefficient), OECD 117; format: physicochemical; settings: n-octanol/water; Method: OECD 117
Text: The bioaccumulation potential of chemical substances has generally been determined from the n-octanol/water partition coefficient (expressed as log Pow) and the bioconcentration factor. The log Pow represents the ratio of a material that dissolves or disperses in octanol (the oil phase) versus water. This coefficient is used as a chemical surrogate for bioaccumulative potential. A log Pow of less than ten is preferred, a log Pow of less than six is more preferred, and a log Pow of less than three is most preferred.
(§1) (i) acute toxicity to the most sensitive marine species (skeletonema costatum) must be greater than EC50 of 10 mg/L; (ii) bioaccumulation potential (as indicated by Log Pow, the octanol-water partition coefficient) must be below 3 or the molecular weight must be greater than 700; and (iii) biodegradation in 28 days is greater than 60%. Corrosion inhibitor intermediates such as the quaternary ammonium salt were tested for their level of acute aquatic toxicity (Table 9), Log Pow (Table 10), and their ability to biodegrade in 28 days (Table 10).

[2] = system: Skeletonema costatum; experiment: Acute aquatic toxicity, ISO 10253; format: in vivo; settings: Hec50, 72 h, Method: ISO 10253
Description: as §1

[3] = Acute aquatic toxicity, ISO 146669; settings: Acartia tonsa, in vivo, Method: ISO 146669
Description: as §1

[4] = Biodegradation in 28 days, Marine BODIS; settings: Method: Marine BODIS
Text: Biodegradation is the chemical breakdown of a material by microorganisms into nutrients that can be used by other organisms. Generally, a complex molecule can be broken down into carbon dioxide, water, microbial biomass, and/or inorganic salts. A biodegradation of 10% or greater is preferred, biodegradation of 20% or greater is more preferred, and a biodegradation of 60% or greater is most preferred.
as §1

[5] = system: Corophium volutator; experiment: Acute aquatic toxicity, PARCOM; format: in vivo; settings: Method: PARCOM
Description: as §1

Which results are given for `CCOC(=O)c1cc[n+](Cc2cccc3ccccc23)cc1.[Cl-]` [Compound 1]?
chromatographic logP [1]: 2.7; EC50 [2]: > 10 µg/mL

With `NC(=O)c1ccc[n+](Cc2cccc3ccccc23)c1.[Cl-]` [Compound 4] as the molecule, how does the chromatographic logP [1] read?
Its chromatographic logP is 2.1.

What about the LC50 at 48 h [3] of the same molecule?
The LC50 at 48 h was 105 µg/mL.

And the “Biodegradation (28 days)” value [4]?
Its value is 40%^7.

What about the “Corophium volutator 10 d LC50” value [5] of the same molecule?
Its value is 6116.15 mg/kg.
